Measurements as given in publication PMC6724035, “Evaluation of Tumor-Targeting Properties of an Antagonistic Bombesin Analogue RM26 Conjugated with a Non-Residualizing Radioiodine Label Comparison with a Radiometal-Labelled Counterpart” (Pharmaceutics, 2019).
Where a SMILES comes first, the peptide text is derived from it. [ ]: non-standard residue; d: D form. Tyr(3-I) = N[C@@H](Cc1ccc(O)c(I)c1)C(=O)O; Sta = CC(C)C[C@H](N)[C@@H](O)CC(=O)O; AEEA = NCCOCCOCC(=O)O

How the values were obtained:
[1] = HPLC
Protocol: In vitro stability of [^125I]I-Tyr-PEG2-RM26 was evaluated in PBS and in presence of 100-fold molar excess of sodium iodide (1 mM). After purification, samples of freshly labelled conjugate (10 µL, 0.01 nmol) were mixed with 1 µL of NaI and incubated at room temperature for 1 h. Control samples were mixed with equal volume of PBS. The experiment was performed in duplicates. The stability of [^125I]I-Tyr-PEG2-RM26 was analyzed by HPLC.

[2] = Protocol: Lipophilicity was determined as the logarithm of partition coefficient, logP, of the radiolabelled compound between n-octanol and water. To determine the lipophilicity of both radioconjugates, 500 µL of n-octanol was added to a tube containing the same volume of Milli-Q water. 1 pmol (10 kBq) of radioconjugate was added. The mixture was vigorously vortexed for 1–2 min and then centrifuged. Aliquots of 100 μL were taken from each phase and their radioactivity was measured by an automated gamma-counter. The partition coefficient was calculated as the average log of a ratio of the radioactivity in organic and aqueous fractions. Each measurement was repeated in triplicate.
PC-3 cells [3] = assay: Cell-associated radioactivity in presence of lysosomotropic bases or sodium azide/2-deoxyglucose; format: cell-based, human; details: 1 nM, 100 µM chloroquine, 20 mM ammonium chloride, 2-8 h at 37 °C
Protocol: Additionally, PC-3 cells were incubated with 1 nM of [^125I]I-Tyr-PEG2-RM26 in presence of 20 mM sodium azide/10 mM 2-deoxyglucose at 37 °C for 8 h. […] At predetermined time points (2, 4, and 8 h), media from a set of three dishes was removed, cells were detached by trypsin-EDTA solution, re-suspended, and radioactivity in cells was measured.

DU-145 cells = assay: In vitro binding specificity assay; format: cell-based, human; details: 1 nM, 1 h at 37 °C; 200-fold excess NOTA-PEG4-RM26 for blocking
Protocol: (§1) The in vitro binding specificity test of [^125I]I-Tyr-PEG2-RM26 was performed on PC-3 and DU-145 cell lines. […] The cells were incubated with 1 nM concentration of [^125I]I-Tyr-PEG2-RM26 solution for 1 h at 37 °C. To saturate GRPR, one set of dishes was treated with 200-fold molar excess of non-labelled peptide, NOTA-PEG4-RM26, 15 min before adding the radiolabelled compound. After washing with serum-free media, cells were detached by treatment with 1 mL trypsin-EDTA solution twice. Cell-associated radioactivity was measured in the gamma-counter and presented as percentage of cell-associated activity.

PC-3 cells [4] = assay: In vitro binding specificity assay; format: cell-based, human; details: 1 nM, 1 h at 37 °C; 200-fold excess NOTA-PEG4-RM26 for blocking
Protocol: as §1

in vivo = details: mouse, iv; for tissue to tissue ratio at 0.5 h / tissue to tissue ratio at 3 h / tissue to tissue ratio at 24 h: female, BALB/c nu/nu, total radioactivity; for tissue uptake at 0.5 h / tissue uptake at 3 h / tissue uptake at 24 h: 40 pmol, 40 pmol i.v.; for tissue uptake at 0.5 h: 0.5 h after injection; for tissue uptake at 3 h: 3 h after injection; for tissue uptake at 24 h: 24 h after injection
Protocol: (§2) Animal studies were planned and performed in agreement with EU Directive 2010/63/EU for animal experiments and Swedish national legislation concerning protection of laboratory animals. Experiments were approved by the Ethics Committee for Animal Research in Uppsala (C4/16, 26 February 2016). Biodistribution studies were performed in female BALB/C nu/nu mice purchased from Scanbur A/S (Karlslunde, Denmark). GRPR-expressing xenografts were established by subcutaneous injection of 5 × 10^6 PC-3 cells/mouse in the right hind leg of mice 3 weeks before the experiment. The animals were randomized into groups of four mice for each data point.
(§3) Mice were euthanized followed by dislocation of their neck at 0.5 h after injection and blood samples were collected by heart puncture. At 3 and 24 h after injection, mice were euthanized by an intraperitoneal injection of anaesthetic solution (20 µL of solution per gram of body weight: Ketalar, 10 mg/mL; Rompun, 1 mg/mL) followed by heart puncture. Salivary glands, thyroid, lung, liver, spleen, pancreas, stomach, small intestine, kidneys, tumour, muscle, and bone were collected and weighed. The organ radioactivity was measured in a gamma-counter and uptake values of organs were calculated as percentage of injected dose per gram tissue (% ID/g). To test the in vivo binding specificity, a group of mice was co-injected with 7.5 nmol of non-labelled peptide (NOTA-PEG4-RM26), and biodistribution was measured at 0.5 h after injection.

[5] = tested on: GRPR-expressing PC-3 tumour xenograft; assay: in vivo; details: PC-3 xenograft
Protocol: as §2, §3

[6] = tested on: GRPR-expressing PC-3 tumour xenograft; details: 0.5 h after injection; co-injection of non-labelled NOTA-PEG4-RM26
Protocol: as §2
as §3, with “Salivary glands, thyroid, lung, liver, spleen, pancreas, stomach, small intestine, kidneys, tumour, muscle, and bone were collected and weighed.” left out

[7] = small intestine, small intestine

CC(C)C[C@H](NC(=O)C[C@H](O)[C@H](CC(C)C)NC(=O)[C@H](Cc1c[nH]cn1)NC(=O)CNC(=O)[C@@H](NC(=O)[C@H](C)NC(=O)[C@H](Cc1c[nH]c2ccccc12)NC(=O)[C@H](CCC(N)=O)NC(=O)[C@@H](Cc1ccccc1)NC(=O)COCCOCCNC(=O)[C@@H](N)Cc1ccc(O)c(I)c1)C(C)C)C(N)=O [[^125I]I-Tyr-PEG2-RM26] (H-[Tyr(3-I)][AEEA][dF]QWAVGH[Sta]L-NH2)
In vitro stability in presence of excess 1 mM NaI ([1]; 100-fold molar excess NaI, 1 h at room temperature): 92 ± 3% | In vitro stability in PBS ([1]; 1 h incubation at room temperature): 95 ± 1% | logP [2]: 1 ± 0.1 | Cell-bound activity and retention in presence of chloroquine and ammonium chloride vs control (PC-3 cells [3]): considerably higher compared to control | Binding specificity to DU-145 cells (DU-145 cells): receptor mediated | Binding specificity to PC-3 cells (PC-3 cells [4]): receptor mediated | tissue to tissue ratio at 0.5 h (in vivo; tumour and bone): 1.9 ± 0.2 | tissue to tissue ratio at 3 h (in vivo; tumour and bone): 1.9 ± 0.3 | tissue to tissue ratio at 0.5 h (in vivo; tumour and kidney): 0.5 | tissue to tissue ratio at 3 h (in vivo; tumour and kidney): 0.3 ± 0.1 | tissue to tissue ratio at 24 h (in vivo; tumour and kidney): 0.1 | tissue to tissue ratio at 0.5 h (in vivo; tumour and liver): 0.8 ± 0.2 | tissue to tissue ratio at 3 h (in vivo; tumour and liver): 0.8 ± 0.2 | tissue to tissue ratio at 24 h (in vivo; tumour and liver): 0.6 ± 0.5 | tissue to tissue ratio at 0.5 h (in vivo; tumour and lung): 0.8 | tissue to tissue ratio at 3 h (in vivo; tumour and lung): 0.6 ± 0.1 | tissue to tissue ratio at 24 h (in vivo; tumour and lung): 1 ± 0.6 | tissue to tissue ratio at 0.5 h (in vivo; tumour and muscle): 3.6 ± 0.4 | tissue to tissue ratio at 3 h (in vivo; tumour and muscle): 3.7 ± 0.6 | tissue to tissue ratio at 0.5 h (in vivo; tumour and pancreas): 0.7 ± 0.1 | tissue to tissue ratio at 3 h (in vivo; tumour and pancreas): 0.9 ± 0.1 | tissue to tissue ratio at 0.5 h (in vivo; tumour and salivary gland): 1.3 ± 0.6 | tissue to tissue ratio at 3 h (in vivo; tumour and salivary gland): 1.2 ± 0.3 | tissue to tissue ratio at 0.5 h (in vivo; tumour and small intestine): 1.1 ± 0.6 | tissue to tissue ratio at 3 h (in vivo; tumour and small intestine): 1.3 ± 0.4 | tissue to tissue ratio at 0.5 h (in vivo; tumour and spleen): 1.3 ± 0.2 | tissue to tissue ratio at 3 h (in vivo; tumour and spleen): 1.1 ± 0.1 | tissue to tissue ratio at 0.5 h (in vivo; tumour and stomach): 0.6 ± 0.2 | tissue to tissue ratio at 3 h (in vivo; tumour and stomach): 0.5 ± 0.1 | tissue to tissue ratio at 0.5 h (in vivo; tumour and thyroid): 1 ± 0.5 | tissue to tissue ratio at 3 h (in vivo; tumour and thyroid): 1.2 ± 0.6 | tissue to tissue ratio at 0.5 h (in vivo; tumour and whole blood): 0.7 | tissue to tissue ratio at 3 h (in vivo; tumour and whole blood): 0.8 ± 0.1 | tissue to tissue ratio at 24 h (in vivo; tumour and whole blood): 6 ± 4 | tissue uptake at 0.5 h (in vivo; blood, blood): 10.2 ± 1.5 %ID/g | tissue uptake at 3 h (in vivo; blood, blood): 2.9 ± 1.5 %ID/g | tissue uptake at 24 h (in vivo; blood, blood): 0.02 %ID/g | tissue uptake at 0.5 h (in vivo; bone, bone): 3.8 ± 0.8 %ID/g | tissue uptake at 3 h (in vivo; bone, bone): 1.1 ± 0.5 %ID/g | tissue uptake at 0.5 h (in vivo; kidney, kidney): 13.2 ± 1.8 %ID/g | tissue uptake at 3 h (in vivo; kidney, kidney): 6.1 ± 1.1 %ID/g | tissue uptake at 24 h (in vivo; kidney, kidney): 1.5 ± 0.3 %ID/g | tissue uptake at 0.5 h (in vivo; liver, liver): 8.9 ± 3.1 %ID/g | tissue uptake at 3 h (in vivo; liver, liver): 2.6 ± 1.1 %ID/g | tissue uptake at 24 h (in vivo; liver, liver): 0.2 %ID/g | tissue uptake at 0.5 h (in vivo; lung, lung): 9.1 ± 1.2 %ID/g | tissue uptake at 3 h (in vivo; lung, lung): 3.5 ± 1.4 %ID/g | tissue uptake at 24 h (in vivo; lung, lung): 0.2 ± 0.1 %ID/g | tissue uptake at 0.5 h (in vivo; muscle, muscle): 2 %ID/g | tissue uptake at 3 h (in vivo; muscle, muscle): 0.6 ± 0.3 %ID/g | tissue uptake at 0.5 h (in vivo; pancreas, pancreas): 10.1 ± 1.2 %ID/g | tissue uptake at 3 h (in vivo; pancreas, pancreas): 2.3 ± 0.6 %ID/g | tissue uptake at 0.5 h (in vivo; salivary gland, salivary gland): 6.6 ± 3.7 %ID/g | tissue uptake at 3 h (in vivo; salivary gland, salivary gland): 2 ± 1.2 %ID/g | tissue uptake at 0.5 h (in vivo; [7]): 7.3 ± 3 %ID/g | tissue uptake at 3 h (in vivo; [7]): 1.8 ± 0.7 %ID/g | tissue uptake at 0.5 h (in vivo; spleen, spleen): 5.4 ± 0.8 %ID/g | tissue uptake at 3 h (in vivo; spleen, spleen): 2 ± 0.8 %ID/g | tissue uptake at 0.5 h (in vivo; stomach, stomach): 13.2 ± 7.2 %ID/g | tissue uptake at 3 h (in vivo; stomach, stomach): 4.6 ± 2.7 %ID/g | tissue uptake at 24 h (in vivo; stomach, stomach): 0.1 %ID/g | tissue uptake at 0.5 h (in vivo; thyroid, thyroid): 8.2 ± 3.7 %ID/g | tissue uptake at 3 h (in vivo; thyroid, thyroid): 2.2 ± 1.6 %ID/g | tissue uptake at 0.5 h (in vivo; tumour, tumour, non-blocked): 7 ± 0.8 %ID/g | tissue uptake at 3 h (in vivo; tumour, tumour): 2.1 ± 0.8 %ID/g | Decrease of tumour uptake at 3 h compared to 0.5 h after injection [5]: more than 3 fold | Uptake in pancreas, blocked vs non-blocked group [6]: significantly (p < 0.05) reduced
